Assay results published in ChEMBL document CHEMBL1201862, “PubChem BioAssay data set” (2004).
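Briefly, cells in 96-well plates were exposed to five compound concentrations for 48 h, and endpoints were estimated by linear interpolation. GI50: concentration for 50% inhibition of growth.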 Calls of active or inactive are those of the source. Cut-off read from the data, not from the text of the source: active = GI50 up to about 1.1 µM and inactive = higher.

How the values were obtained:
Experiment in all cases: growth of human tumour cells (NCI), 48 h
786-0 = test system: 786-0
A549 = test system: A549
ACHN = test system: ACHN
CAKI-1 = test system: CAKI-1
CCRF-CEM = test system: CCRF-CEM
COLO 205 = test system: COLO 205
DLD-1 = test system: DLD-1
DMS-114 = test system: DMS-114
DMS-273 = test system: DMS-273
EKVX = test system: EKVX
HCC 2998 = test system: HCC 2998
HCT-116 = test system: HCT-116
HCT-15 = test system: HCT-15
HOP-18 = test system: HOP-18
HOP-62 = test system: HOP-62
HOP-92 = test system: HOP-92
HT-29 = test system: HT-29
IGROV-1 = test system: IGROV-1
K562 = test system: K562
KM-20L2 = test system: KM-20L2
KM12 = test system: KM12
LOX IMVI = test system: LOX IMVI
LXFL 529 = test system: LXFL 529
M14 = test system: M14
M19-MEL = test system: M19-MEL
MOLT-4 = test system: MOLT-4
Malme-3M = test system: Malme-3M
NCI-H226 = test system: NCI-H226
NCI-H23 = test system: NCI-H23
NCI-H460 = test system: NCI-H460
NCI-H522 = test system: NCI-H522
OVCAR-3 = test system: OVCAR-3
OVCAR-4 = test system: OVCAR-4
OVCAR-5 = test system: OVCAR-5
OVCAR-8 = test system: OVCAR-8
RPMI-8226 = test system: RPMI-8226
RXF 393 = test system: RXF 393
RXF 631 = test system: RXF 631
SF-268 = test system: SF-268
SF-295 = test system: SF-295
SF-539 = test system: SF-539
SK-MEL-28 = test system: SK-MEL-28
SK-MEL-2 = test system: SK-MEL-2
SK-MEL-5 = test system: SK-MEL-5
SK-OV-3 = test system: SK-OV-3
SN12C = test system: SN12C
SNB-19 = test system: SNB-19
SNB-75 = test system: SNB-75
SNB-78 = test system: SNB-78
SW-620 = test system: SW-620
TK-10 = test system: TK-10
U-251 = test system: U-251
UACC-257 = test system: UACC-257
UACC-62 = test system: UACC-62
UO-31 = test system: UO-31
XF498 = test system: XF498
A498 = test system: A498
HL-60 = test system: HL-60
SR = test system: SR

O=C(O)[C@H](NS(=O)(=O)c1ccc([N+](=O)[O-])cc1)c1ccccc1
GI50 (786-0): > 100 µM (inactive)
GI50 (A549): > 100 µM (inactive)
GI50 (ACHN): > 100 µM (inactive)
GI50 (CAKI-1): > 100 µM (inactive)
GI50 (CCRF-CEM): > 100 µM (inactive)
GI50 (COLO 205): > 100 µM (inactive)
GI50 (DLD-1): > 100 µM (inactive)
GI50 (DMS-114): > 100 µM (inactive)
GI50 (DMS-273): > 100 µM (inactive)
GI50 (EKVX): > 100 µM (inactive)
GI50 (HCC 2998): > 100 µM (inactive)
GI50 (HCT-116): > 100 µM (inactive)
GI50 (HCT-15): > 100 µM
GI50 (HOP-18): > 100 µM (inactive)
GI50 (HOP-62): > 100 µM (inactive)
GI50 (HOP-92): > 100 µM (inactive)
GI50 (HT-29): > 100 µM (inactive)
GI50 (IGROV-1): > 100 µM (inactive)
GI50 (K562): > 100 µM (inactive)
GI50 (KM-20L2): > 100 µM (inactive)
GI50 (KM12): > 100 µM (inactive)
GI50 (LOX IMVI): > 100 µM (inactive)
GI50 (LXFL 529): > 100 µM (inactive)
GI50 (M14): > 100 µM (inactive)
GI50 (M19-MEL): > 100 µM (inactive)
GI50 (MOLT-4): > 100 µM (inactive)
GI50 (Malme-3M): > 100 µM (inactive)
GI50 (NCI-H226): > 100 µM (inactive)
GI50 (NCI-H23): > 100 µM (inactive)
GI50 (NCI-H460): > 100 µM (inactive)
GI50 (NCI-H522): > 100 µM (inactive)
GI50 (OVCAR-3): > 100 µM (inactive)
GI50 (OVCAR-4): > 100 µM (inactive)
GI50 (OVCAR-5): > 100 µM (inactive)
GI50 (OVCAR-8): > 100 µM (inactive)
GI50 (RPMI-8226): > 100 µM (inactive)
GI50 (RXF 393): > 100 µM (inactive)
GI50 (RXF 631): > 100 µM (inactive)
GI50 (SF-268): > 100 µM (inactive)
GI50 (SF-295): > 100 µM (inactive)
GI50 (SF-539): > 100 µM (inactive)
GI50 (SK-MEL-28): > 100 µM (inactive)
GI50 (SK-MEL-2): > 100 µM (inactive)
GI50 (SK-MEL-5): > 100 µM (inactive)
GI50 (SK-OV-3): > 100 µM (inactive)
GI50 (SN12C): > 100 µM (inactive)
GI50 (SNB-19): > 100 µM (inactive)
GI50 (SNB-75): > 100 µM (inactive)
GI50 (SNB-78): > 100 µM (inactive)
GI50 (SW-620): > 100 µM (inactive)
GI50 (TK-10): > 100 µM (inactive)
GI50 (U-251): > 100 µM (inactive)
GI50 (UACC-257): > 100 µM (inactive)
GI50 (UACC-62): > 100 µM (inactive)
GI50 (UO-31): > 100 µM (inactive)
GI50 (XF498): > 100 µM (inactive)

N#C/C(=C\c1c(Cl)cccc1Cl)c1ccccc1
GI50 (786-0): 4.92 µM (inactive)
GI50 (A498): 3.13 µM (inactive)
GI50 (A549): 7.8 µM (inactive)
GI50 (ACHN): 7.59 µM (inactive)
GI50 (CAKI-1): 8.47 µM (inactive)
GI50 (CCRF-CEM): 2.88 µM (inactive)
GI50 (COLO 205): 2.4 µM (inactive)
GI50 (DLD-1): 5.18 µM (inactive)
GI50 (DMS-114): 12.4 µM (inactive)
GI50 (DMS-273): 3.35 µM (inactive)
GI50 (EKVX): 18.3 µM (inactive)
GI50 (HCC 2998): > 39.2 µM (inactive)
GI50 (HCT-116): 4.36 µM (inactive)
GI50 (HCT-15): 4.16 µM
GI50 (HL-60): 3.6 µM (inactive)
GI50 (HOP-18): > 50.1 µM (inactive)
GI50 (HOP-62): 3.83 µM (inactive)
GI50 (HOP-92): 8.49 µM (inactive)
GI50 (HT-29): 4.19 µM (inactive)
GI50 (IGROV-1): 9.29 µM (inactive)
GI50 (K562): 3.15 µM (inactive)
GI50 (KM-20L2): 3.85 µM (inactive)
GI50 (KM12): 4.86 µM (inactive)
GI50 (LOX IMVI): 18.7 µM (inactive)
GI50 (LXFL 529): 33.7 µM (inactive)
GI50 (M14): 6.4 µM (inactive)
GI50 (M19-MEL): 8.57 µM (inactive)
GI50 (MOLT-4): 4.73 µM (inactive)
GI50 (Malme-3M): 10.2 µM (inactive)
GI50 (NCI-H226): > 22.9 µM (inactive)
GI50 (NCI-H23): 14.9 µM (inactive)
GI50 (NCI-H460): 4.69 µM (inactive)
GI50 (NCI-H522): 14.2 µM (inactive)
GI50 (OVCAR-3): 3.8 µM (inactive)
GI50 (OVCAR-4): 20.1 µM (inactive)
GI50 (OVCAR-5): > 77.4 µM (inactive)
GI50 (OVCAR-8): 16.4 µM (inactive)
GI50 (RPMI-8226): 5.48 µM (inactive)
GI50 (RXF 393): 6.12 µM (inactive)
GI50 (RXF 631): 7.23 µM (inactive)
GI50 (SF-268): 18.5 µM (inactive)
GI50 (SF-295): 4.43 µM (inactive)
GI50 (SF-539): 2.72 µM (inactive)
GI50 (SK-MEL-28): 6.92 µM (inactive)
GI50 (SK-MEL-2): 5.78 µM (inactive)
GI50 (SK-MEL-5): 5.51 µM (inactive)
GI50 (SK-OV-3): 6.11 µM (inactive)
GI50 (SN12C): 9.82 µM (inactive)
GI50 (SNB-19): 3.66 µM (inactive)
GI50 (SNB-75): 2.97 µM (inactive)
GI50 (SNB-78): 11.1 µM (inactive)
GI50 (SR): 2.63 µM (inactive)
GI50 (SW-620): 2.74 µM (inactive)
GI50 (TK-10): 15.8 µM (inactive)
GI50 (U-251): 4.39 µM (inactive)
GI50 (UACC-257): 8.65 µM (inactive)
GI50 (UACC-62): 4.88 µM (inactive)
GI50 (UO-31): 17.7 µM (inactive)
GI50 (XF498): 8.13 µM (inactive)
